In US20260014095A1, “PATCH […] PREPARATION METHOD AND USE THEREOF” (DEMOTECH.INC., priority 2022, published 2026):
Values after ≈ are worked out from the molar mass of the structure shown.

Columns and labels:
[1] = Solubility of colchicine in different types of pressure-sensitive adhesives; type: physicochemical; details: for State in the 4098 pressure-sensitive adhesive: 0 days; for Stability (crystallization or not) in the 4098 pressure-sensitive adhesive: room temperature for 4 months
Procedure: Colchicine with different contents was dissolved in pressure-sensitive adhesive systems with different properties.

[2] = Solubility test of colchicine in solvents; type: physicochemical; details: thermodynamic from solid, 25° C.
Procedure: About 2 g of the colchicine raw material was weighed and placed in a 100 ml brown volumetric flask, into which 10 ml of a solvent was added. The mixture was uniformly mixed, placed in a thermostatic oscillator with a water bath at 25° C., and observed periodically, into which the raw material was continuously added once the solution became clear. […] After the saturated solution was centrifuged in a centrifuge, the supernatant was taken and diluted to a suitable concentration, the concentration of which was then determined using the external standard method, and the solubility was calculated.

Q: Which “State in the 4098 pressure-sensitive adhesive” value ([1]; content higher than 5%) does the source give for `COc1cc2c(c(OC)c1OC)-c1ccc(OC)c(=O)cc1[C@@H](NC(C)=O)CC2` [colchicine, N-(5,6,7,9-tetrahydro-1,2,3,10-tetramethoxy-9-oxobenzo[α]cycloheptatrienocycloheptatrien-7-yl)-(S)-acetamide] here?
A: Its value is “semitransparent”.

Q: And the “State in the 4098 pressure-sensitive adhesive” value ([1]; content of colchicine 5% or less)?
A: The value was “transparent”.

Q: What about the “Stability (crystallization or not) in the 4098 pressure-sensitive adhesive” value ([1]; content 5% or less) of the same molecule?
A: The value was “no crystallization is found”.

Q: And the “Stability (crystallization or not) in the 4098 pressure-sensitive adhesive” value ([1]; content more than 5%)?
A: Its value is “crystallization is precipitated”.

Q: What about the “Highest solubility of colchicine in typical acrylic pressure-sensitive adhesives” value ([1]; without a permeation enhancer) of the same molecule?
A: The value was “about 5%”.

Q: What about the solubility at 24 h ([2]; 1 M triethanolamine (TEOA) in ethanol, organic solvent or mixture, 1M solution of TEOA (triethanolamine) in ethanol) of the same molecule?
A: Its solubility at 24 h is 740 mg/mL (≈ 1850 mM).

Q: What about the solubility at 24 h ([2]; organic solvent or mixture, DGME (diethylene glycol monoethyl ether)) of the same molecule?
A: The solubility at 24 h was 350 mg/mL (≈ 876 mM).

Q: And the solubility at 24 h ([2]; organic solvent or mixture, Ethanol:ethyl acetate (1:1, v/v))?
A: The solubility at 24 h was 380 mg/mL (≈ 951 mM).

Q: And the solubility at 24 h ([2]; organic solvent or mixture, Ethyl acetate)?
A: The solubility at 24 h was 0.48 mg/mL (≈ 1.2 mM).

Q: What about the solubility at 24 h ([2]; organic solvent or mixture, ethanol) of the same molecule?
A: The solubility at 24 h was 590 mg/mL (≈ 1480 mM).

Q: What about the solubility at 24 h ([2]; water) of the same molecule?
A: The solubility at 24 h was greater than 1000 mg/mL.
